Data on six molecules can be found in patent publication US20200131558A1, “PAPER-BASED ASSAY FOR ANTIMICROBIAL RESISTANCE” (Colorado State University Research Foundation, priority 2017, published 2020).

Data set [1] has as its system Chromobacterium violaceum. Briefly: Antibiotic susceptibility testing (MIC, VITEK 2 microdilution). The class given is cell-based. The settings on record: C. violaceum isolate from influent of urban sewage water. How it is done: To determine antibiotic susceptibility of Chromobacterium violaceum and the 32 E. coli isolates, each isolate was subjected to antibiotic susceptibility testing [VITEK 2™ Biomerieux, USA] using microdilution and photometric determination of growth at the Colorado State University Veterinary Diagnostic Laboratory located in Fort Collins, Colo., US. […] The antibiotics that were tested against C. violaceum included amikacin, amoxicillin-clavulanate, ampicillin, cefazolin, cefpodoxime, ceftazidime, cephalothin, imipenem, ticarcillin, and ticarcillin-clavulanate. Antibiotics tested against each E. coli isolate included amoxicillin, ampicillin, cefalexin, cefovecin, cefpodoxime, ceftiofur, piperacillin, ceftazidime, cefotaxime, and imipenem.
A general note: Broth dilution looks for growth in wells or tubes with falling amounts of substance.

Data set [2] is classed as physicochemical.
A further data set concerns β-lactamase. The settings on record: on paper, ~22° C., 1 U/mL β-lactamase, Lineweaver-Burk plot.
In data set [3] the test system is C. violaceum's β-lactamase. The data set is described as follows: Paper-based test on intact bacterial isolates. Format: cell-based, Chromobacterium violaceum. The conditions noted are these: intact bacteria, 0.5 mM nitrocefin, 2 hr. How it is done: Bacterial isolates were obtained from grab samples in the field, except for influent. Field samples include influent, effluent, surface water from a river and sewage samples from city sewers. All samples were plated by pipetting 50-100 μL on various clinical agars [CHROMagar™ Orientation, CHROMagar™ ESBL, and CHROMagar™ KPC]. Bacterial isolates were purified by selecting a single colony with an inoculating loop and spreading the colony on the same kind of agar the colony was selected from, or was spread onto a MacConkey agar plate [Difco]. To remove potential inhibitors before any testing, they were further subcultured onto non selective agar [Tryptic Soy Agar, Thermo Scientific™ Remel™] and then grown in a nutrient broth [Tryptic Soy Broth, Thermo Scientific™ Remel™, Soybean Casein Digest] at 37° C. and 2% CO2. After replenishing the nutrient broth, all bacteria isolates were grown using a shaker for 12-18 hr depending on bacteria growth rate. They were also re-plated on ESBL plates to confirm resistance mechanisms. The isolates were given to the tester blind for accurate, unbiased results. Bacteria were not lysed before reacting 20 μL of bacteria solution with 20 μL of 0.5 mM nitrocefin. Images were obtained after 2 hr of reaction.

Data set [4] relates to Chromobacterium violaceum. The data set is described as follows: Growth on ampicillin-containing agar plate. Format: cell-based. The conditions noted are these: C. violaceum isolate.

Regarding `CC(=O)OCC1=C(C(=O)O)N2C(=O)[C@@H](NC(=O)Cc3cccs3)[C@H]2SC1` [cephalothin], the “resistance/susceptibility of isolate (MIC interpreted per CLSI)” value in data set [1] was “resistant”.

For the molecule `Cc1nnc(SCC2=C(C(=O)O)N3C(=O)[C@@H](NC(=O)Cn4cnnn4)[C@H]3SC2)s1` [cefazolin], the “resistance/susceptibility of isolate (MIC interpreted per CLSI)” value in data set [1] is given as “resistant”.

Regarding `O=C(Cc1cccs1)N[C@@H]1C(=O)N2C(C(=O)O)=C(/C=C/c3ccc([N+](=O)[O-])cc3[N+](=O)[O-])CS[C@H]12` [nitrocefin], the solubility in water result in data set [2] is given as “insoluble in water”. Moreover, in the data set with β-lactamase, the Michaelis-Menten constant (Km) (in general, the concentration of substrate that gives half-maximal velocity) came out at 293 ± 13 µM and the Vmax – broadly, the rate approached at saturating substrate – amounted to 0.0285 ± 0.0012 mM/min. Also, the “reaction with the isolate's β-lactamase (color change)” value in data set [3] is on record as “did not react”.

Regarding `CC1(C)S[C@@H]2[C@H](NC(=O)[C@H](N)c3ccc(O)cc3)C(=O)N2[C@H]1C(=O)O` [amoxicillin], the “resistance/susceptibility of isolate (MIC interpreted per CLSI)” value in data set [1] is “susceptible”.

Regarding `CC1(C)S[C@@H]2[C@H](NC(=O)[C@H](N)c3ccccc3)C(=O)N2[C@H]1C(=O)O` [ampicillin], the “growth on ampicillin-containing agar plate” value in data set [4] is recorded as “did not grow”.

As to `CC1(C)S[C@@H]2[C@H](NC(=O)[C@H](C(=O)O)c3ccsc3)C(=O)N2[C@H]1C(=O)O` [ticarcillin], the “resistance/susceptibility of isolate (MIC interpreted per CLSI)” value in data set [1] was “susceptible”.
